Experiment [1] concerns the target GDP-bound NRAS wild-type protein (Homo sapiens, UniProt P01111). Nature of the experiment: Binding to NRAS by surface plasmon resonance (SPR), Single Cycle Kinetics. Conditions: for NRAS/KRAS (ratio of KD value for NRAS to KD value for KRAS) / NRAS/KRAS (ratio of KD value with respect to NRAS to KD value with respect to KRAS): GDP-bound NRAS wild-type vs GDP-bound KRAS wild-type. In general terms: In SPR one partner is held on a chip, and binding of the other changes the refractive index at the surface.

Experiment [2] has as its target GDP-bound HRAS wild-type protein (Homo sapiens, UniProt P01112). Nature of the experiment: Binding to HRAS by surface plasmon resonance (SPR), Single Cycle Kinetics. Conditions: for HRAS/KRAS (ratio of KD value for HRAS to KD value for KRAS) / HRAS/KRAS (ratio of KD value with respect to HRAS to KD value with respect to KRAS): GDP-bound HRAS wild-type vs GDP-bound KRAS wild-type.

Setting [3] is: SPR, GDP-bound wild-type proteins.

The results in this text go back to US20250230193A1, “CYCLIC COMPOUND HAVING SELECTIVE KRAS INHIBITORY EFFECT ON HRAS AND NRAS” (CHUGAI SEIYAKU KABUSHIKI KAISHA, priority 2022, published 2025).

Where a SMILES comes first, the peptide text is derived from it. Bridges are numbered along the chain shown (N, C = ends). [ ]: non-standard residue; d: D form. The star is where a group is joined. hPhe(3-Cl-4-CF3) = N[C@@H](CCc1ccc(C(F)(F)F)c(Cl)c1)C(=O)O; NPrPhe(4-CF3) = CCCN[C@@H](Cc1ccc(C(F)(F)F)cc1)C(=O)O; NMeGly(cPent) = CN[C@H](C(=O)O)C1CCCC1; NMeD = CN[C@@H](CC(=O)O)C(=O)O; NMeL = CN[C@@H](CC(C)C)C(=O)O; Piperidide = C1CCN(*)CC1; Ac4c = NC1(C(=O)O)CCC1; Sar = CNCC(=O)O

GDP-bound HRAS wild-type protein, sequence (P01112 whole entry): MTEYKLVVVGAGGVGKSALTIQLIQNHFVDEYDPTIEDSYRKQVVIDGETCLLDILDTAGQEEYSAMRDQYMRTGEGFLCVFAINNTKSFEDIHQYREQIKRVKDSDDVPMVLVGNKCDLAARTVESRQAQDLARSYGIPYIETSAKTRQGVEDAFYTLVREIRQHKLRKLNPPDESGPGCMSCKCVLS
GDP-bound NRAS wild-type protein, sequence (P01111 whole entry): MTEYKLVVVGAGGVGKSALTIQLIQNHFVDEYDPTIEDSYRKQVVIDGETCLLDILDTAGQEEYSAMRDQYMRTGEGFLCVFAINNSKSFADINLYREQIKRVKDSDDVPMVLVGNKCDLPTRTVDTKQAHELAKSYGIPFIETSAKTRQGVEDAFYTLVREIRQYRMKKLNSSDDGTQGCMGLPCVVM

For `CCC[C@H]1C(=O)N[C@@H]([C@@H](C)CC)C(=O)N(C)CC(=O)N(C)[C@H]2C/C=C\CCN(C2=O)[C@@H](Cc2ccc(C)cc2)C(=O)N(C)CC(=O)N[C@@H](CCc2ccc(Cl)c(Cl)c2)C(=O)N2C[C@H](OCC)C[C@H]2C(=O)NC2(CC(C)(C)C2)C(=O)N(C)[C@@H](CC(C)(C)C)C(=O)N(C)[C@H](C(=O)N(C)C)CC(=O)N1C` [PP2714], in experiment [1] (class symbols), the “NRAS/KRAS (ratio of KD value with respect to GDP-bound NRAS wild-type protein to KD value with respect to KRAS)” value was “A (a compound having 10 or more and less than 20 is denoted as A)”. Also, in experiment [2] (class symbols), the “HRAS/KRAS (ratio of KD value with respect to GDP-bound HRAS wild-type protein to KD value with respect to KRAS)” value was “A (a compound having 10 or more and less than 20 is denoted as A)”.
For the compound `CCO[C@@H]1C[C@H]2C(=O)NC3(CC(C)(C)C3)C(=O)N(C)[C@@H](C3CCCC3)C(=O)N(C)[C@H](C(=O)N(C)CC)CC(=O)N(C)[C@@H](CC(C)C)C(=O)N[C@@H]([C@@H](C)OCC)C(=O)N(C)CC(=O)N(C)[C@H]3C/C=C\CCN(C3=O)[C@@H](Cc3ccc(C(F)(F)F)cc3)C(=O)N(C)CC(=O)N[C@@H](CCc3cc(F)c(C(F)(F)F)c(F)c3)C(=O)N2C1` [PP1919], the “NRAS/KRAS (ratio of KD value for NRAS to KD value for KRAS)” value in experiment [1] (KD ratio, SPR) is “A (a compound having 10 or more and less than 20 is denoted as A)”. For the same compound, the “HRAS/KRAS (ratio of KD value for HRAS to KD value for KRAS)” value in experiment [2] (KD ratio, SPR) was “A (a compound having 10 or more and less than 20 is denoted as A)”.
For the compound `CCC[C@H]1C(=O)N[C@@H](C2CCCC2)C(=O)N(C)CC(=O)N(C)[C@H]2C/C=C\CCN(C2=O)[C@@H](Cc2ccc(C(F)(F)F)cc2)C(=O)N(C)CC(=O)N[C@@H](CCc2ccc(C(F)(F)F)c(Cl)c2)C(=O)N2C[C@H](OCC)C[C@H]2C(=O)NC2(CC(C)(C)C2)C(=O)N(C)[C@@H](CC(C)(C)C)C(=O)N(C)[C@H](C(=O)N(C)C)CC(=O)N1C` [PP2971], the “NRAS/KRAS (ratio of KD value with respect to GDP-bound NRAS wild-type protein to KD value with respect to KRAS)” value in experiment [1] (setting [3]) is “A (a compound having 10 or more and less than 20 is denoted as A)”. Further, the “HRAS/KRAS (ratio of KD value with respect to GDP-bound HRAS wild-type protein to KD value with respect to KRAS)” value in experiment [2] (setting [3]) was “A (a compound having 10 or more and less than 20 is denoted as A)”.
For `CCO[C@@H]1C[C@H]2C(=O)NC3(CCCC3)C(=O)N(C)[C@@H](C3CCCC3)C(=O)N(C)[C@H](C)CC(=O)N(C)[C@@H](CC(C)C)C(=O)N[C@@H]([C@@H](C)CC)C(=O)N(C)CC(=O)N(C)[C@H]3C/C=C\CCN(C3=O)[C@@H](Cc3ccc(C(F)(F)F)cc3)C(=O)N(C)CC(=O)N[C@@H](CCc3cc(F)c(C(F)(F)F)c(F)c3)C(=O)N2C1` [PP1096], the “NRAS/KRAS (ratio of KD value with respect to NRAS to KD value with respect to KRAS)” value in experiment [1] (KD ratio, SPR) was “B (a compound having 3 or more and less than 10 is denoted as B)”. The “HRAS/KRAS (ratio of KD value with respect to HRAS to KD value with respect to KRAS)” value in experiment [2] (KD ratio, SPR) was “B (a compound having 3 or more and less than 10 is denoted as B)”.
Take `CCO[C@@H]1C[C@H]2C(=O)NC3(CC(C)(C)C3)C(=O)N(C)[C@@H](C3CCCC3)C(=O)N(C)[C@H](C(=O)N(C)C)CC(=O)N(C)[C@@H](CC(C)C)C(=O)N[C@@H]([C@@H](C)CC)C(=O)N(C)CC(=O)N(C)[C@H]3C/C=C\CCN(C3=O)[C@@H](Cc3ccc(C(F)(F)F)cc3)C(=O)N(C)CC(=O)N[C@@H](CCc3cc(F)c(Cl)c(F)c3)C(=O)N2C1` [PP1761]: the “NRAS/KRAS (ratio of KD value for NRAS to KD value for KRAS)” value in experiment [1] (KD ratio, SPR) is “A (a compound having 10 or more and less than 20 is denoted as A)”. Also, the “HRAS/KRAS (ratio of KD value for HRAS to KD value for KRAS)” value in experiment [2] (KD ratio, SPR) was “A (a compound having 10 or more and less than 20 is denoted as A)”.
In the case of `CCO[C@@H]1C[C@H]2C(=O)N(C)C3(CCCC3)C(=O)N(C)[C@@H](C3CCCC3)C(=O)N(C)[C@H](C(=O)N(C)C)CC(=O)N(C)[C@@H](CC)C(=O)N[C@@H]([C@@H](C)CC)C(=O)N3CCC[C@H]3C(=O)N(C)[C@H]3C/C=C\CCN(C3=O)[C@@H](Cc3ccc(C)cc3)C(=O)N(C)CC(=O)N[C@@H](CCc3cc(F)c(C(F)(F)F)c(F)c3)C(=O)N2C1` [PP1810], the “NRAS/KRAS (ratio of KD value for NRAS to KD value for KRAS)” value in experiment [1] (KD ratio, SPR) is “A (a compound having 10 or more and less than 20 is denoted as A)”. Moreover, the “HRAS/KRAS (ratio of KD value for HRAS to KD value for KRAS)” value in experiment [2] (KD ratio, SPR) is “B (a compound having 3 or more and less than 10 is denoted as B)”.
Take `CCO[C@@H]1C[C@H]2C(=O)NC3(CC(C)(C)C3)C(=O)N(C)[C@@H](C(CC)CC)C(=O)N(C)[C@H](C(=O)N(C)C)CC(=O)N(C)[C@@H](C(C)C)C(=O)N[C@@H]([C@@H](C)CC)C(=O)N(C)CC(=O)N(C)[C@H]3C/C=C\CCN(C3=O)[C@@H](Cc3ccc(C)cc3)C(=O)N(C)CC(=O)N[C@@H](CCc3ccc(C(F)(F)F)c(Cl)c3)C(=O)N2C1` [PP2158]: the “NRAS/KRAS (ratio of KD value with respect to NRAS to KD value with respect to KRAS)” value in experiment [1] (SPR) is on record as “AA (a compound having 20 or more is denoted as AA)”. In addition, the “HRAS/KRAS (ratio of KD value with respect to HRAS to KD value with respect to KRAS)” value in experiment [2] (SPR) is “A (a compound having 10 or more and less than 20 is denoted as A)”.
`CCCN1C(=O)CN(C)C(=O)CN(C)C(=O)[C@H]([C@@H](C)CC)NC(=O)[C@H](CC(C)C)N(C)C(=O)C[C@@H](C(=O)N2CCCCC2)N(C)C(=O)[C@H](C2CCCC2)N(C)C(=O)C2(CCC2)NC(=O)[C@@H]2CCCN2C(=O)[C@H](CCc2ccc(C(F)(F)F)c(Cl)c2)NC(=O)CN(C)C(=O)[C@@H]1Cc1ccc(C(F)(F)F)cc1` [PP1930] ([NMeL]I[Sar][Sar][NPrPhe(4-CF3)][Sar][hPhe(3-Cl-4-CF3)]P[Ac4c][NMeGly(cPent)][NMeD]-Piperidide; lactam N-11): in experiment [1] (KD ratio, SPR), the “NRAS/KRAS (ratio of KD value for NRAS to KD value for KRAS)” value is “B (a compound having 3 or more and less than 10 is denoted as B)”. For the same compound, the “HRAS/KRAS (ratio of KD value for HRAS to KD value for KRAS)” value in experiment [2] (KD ratio, SPR) was “C (A compound having a KD ratio of 0.1 or more and less than 3 is denoted as C)”.
